Test results taken from patent US11498903B2 (BRISTOL-MYERS SQUIBB COMPANY, priority 2017, dated 2022).
Like-named read-outs stand apart in the source and are kept apart here.

Target: T1, human APJ receptor (Homo sapiens, UniProt P35414)
T1 construct: expressed in transfected cells
T1 sequence (P35414 1-380): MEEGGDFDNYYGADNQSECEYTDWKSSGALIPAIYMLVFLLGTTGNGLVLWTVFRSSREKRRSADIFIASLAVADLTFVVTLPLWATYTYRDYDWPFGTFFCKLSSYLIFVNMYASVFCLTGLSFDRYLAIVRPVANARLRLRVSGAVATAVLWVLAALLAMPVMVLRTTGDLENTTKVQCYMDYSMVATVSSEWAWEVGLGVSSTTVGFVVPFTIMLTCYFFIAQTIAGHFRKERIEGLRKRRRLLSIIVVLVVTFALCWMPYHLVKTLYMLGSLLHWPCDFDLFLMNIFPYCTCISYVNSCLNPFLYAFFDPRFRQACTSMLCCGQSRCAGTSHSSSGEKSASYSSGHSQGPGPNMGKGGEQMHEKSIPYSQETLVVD
Test: Intracellular cAMP accumulation assay (APJ hcAMP, HTRF)
Format: cell-based
Method in brief: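 Inhibition of 2 μM forskolin-driven cAMP ([…] present) measured by HTRF in 5,000 HEK293 cells/well stably expressing human APJ, 30 min, room temperature. EC50 came from a variable-slope sigmoidal fit; Ymax was relative to (Pyr1)apelin-13 set at 100%.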

[1] = Table 3, HEK293 cells stably expressing human APJ receptor, read-out: APJ cAMP Human EC50
[2] = Table 1, HEK293 cells stably expressing human APJ receptor, inhibition of forskolin-mediated cAMP production, read-out: APJ hcAMP EC50
[3] = human APJ, cAMP, potency range class, read-out: APJ cAMP Human EC50

CCC[C@@H](NC(=O)c1ccc(-c2c(Cl)cccc2-c2nc3cc(OC)c(F)cc3[nH]2)c(-c2n[nH]c(=O)o2)c1)c1ccccc1 [Example 130, 2′-chloro-6′-(6-fluoro-5-methoxy-1H-1,3-benzodiazol-2-yl)-2-(5-oxo-4,5-dihydro-1,3,4-oxadiazol-2-yl)-N-[(1R)-1-phenylbutyl]-[1,1′-biphenyl]-4-carboxamide] was tested, and the EC50 [1] was less than 10 nM.

CCC[C@@H](NC(=O)c1ccc(-c2c(C)cccc2-c2nc3ccccc3n2C)c(C(=O)O)c1)c1ccccc1 [Example 137, 2′-methyl-6′-(1-methyl-1H-1,3-benzodiazol-2-yl)-4-{[(1R)-1-phenylbutyl]carbamoyl}-[1,1′-biphenyl]-2-carboxylic acid] gave an EC50 [2] of 10 to 100 nM and an EC50 [1] of 10 to 100 nM.

Molecule COC[C@@H](NC(=O)c1ccc(-c2cc(Cl)ccc2-c2nc3ccccc3n2C)c(C(=O)O)c1)c1ccccc1 [Example 138, 5′-chloro-4-{[(1S)-2-methoxy-1-phenylethyl]carbamoyl}-2′-(1-methyl-1H-1,3-benzodiazol-2-yl)-[1,1′-biphenyl]-2-carboxylic acid] has an EC50 [2] of 101 to 500 nM and an EC50 [1] of 101 to 500 nM.

In the case of CCC[C@@H](NC(=O)c1ccc(-c2c(C)cccc2-c2nc3ccccc3[nH]2)c(C(=O)O)c1)c1ccccc1 [Example 139, 2′-(1H-1,3-benzodiazol-2-yl)-6′-methyl-4-{[(1R)-1-phenylbutyl]carbamoyl}-[1,1′-biphenyl]-2-carboxylic acid], the EC50 [1] is reported as less than 10 nM.

CCC[C@@H](NC(=O)c1ccc(-c2c(F)cccc2-c2nc3ccccc3[nH]2)c(C(=O)O)c1)c1ccccc1 [Example 140, 2′-(1H-1,3-benzodiazol-2-yl)-6′-fluoro-4-{[(1R)-1-phenylbutyl]carbamoyl}-[1,1′-biphenyl]-2-carboxylic acid] was tested, and the EC50 [1] was less than 10 nM.

Work on CCC[C@@H](NC(=O)c1ccc(-c2c(C)cccc2-c2nc3cc(OC)ccc3[nH]2)c(C(=O)O)c1)c1ccccc1 [Example 142, 2′-(5-methoxy-1H-1,3-benzodiazol-2-yl)-6′-methyl-4-{[(1R)-1-phenylbutyl]carbamoyl}-[1,1′-biphenyl]-2-carboxylic acid] yielded an EC50 [2] of less than 10 nM and an EC50 [1] of less than 10 nM.

For CCC[C@@H](NC(=O)c1ccc(-c2c(F)cccc2-c2nc3cc(OC)ccc3[nH]2)c(C(=O)O)c1)c1ccccc1 [Example 143, 2′-fluoro-6′-(5-methoxy-1H-1,3-benzodiazol-2-yl)-4-{[(1R)-1-phenylbutyl]carbamoyl}-[1,1′-biphenyl]-2-carboxylic acid], the EC50 [1] was less than 10 nM.

Work on CCC[C@@H](NC(=O)c1ccc(-c2c(C)cccc2-c2nc3cc(C(C)(C)C)ccc3[nH]2)c(C(=O)O)c1)c1ccccc1 [Example 144, 2′-(5-tert-butyl-1H-1,3-benzodiazol-2-yl)-6′-methyl-4-{[(1R)-1-phenylbutyl]carbamoyl}-[1,1′-biphenyl]-2-carboxylic acid] yielded an EC50 [2] of less than 10 nM and an EC50 [1] of less than 10 nM.

Molecule CCC[C@@H](NC(=O)c1ccc(-c2c(F)cccc2-c2nc3cc(C(C)(C)C)ccc3[nH]2)c(C(=O)O)c1)c1ccccc1 [Example 145, 2′-(5-tert-butyl-1H-1,3-benzodiazol-2-yl)-6′-fluoro-4-{[(1R)-1-phenylbutyl]carbamoyl}-[1,1′-biphenyl]-2-carboxylic acid] has an EC50 [2] of less than 10 nM and an EC50 [1] of less than 10 nM.

CCC[C@@H](NC(=O)c1ccc(-c2c(C)cccc2-c2nc3c(O)cccc3[nH]2)c(C(=O)O)c1)c1ccccc1 [Example 148, 2′-(4-hydroxy-1H-1,3-benzodiazol-2-yl)-6′-methyl-4-{[(1R)-1-phenylbutyl]carbamoyl}-[1,1′-biphenyl]-2-carboxylic acid] gave an EC50 [2] of less than 10 nM and an EC50 [1] of less than 10 nM.

With CCC[C@@H](NC(=O)c1ccc(-c2c(C)cccc2-c2nc3cnccc3[nH]2)c(C(=O)O)c1)c1ccccc1 [Example 149, 2′-{1H-imidazo[4,5-c]pyridin-2-yl}-6′-methyl-4-{[(1R)-1-phenylbutyl]carbamoyl}-[1,1′-biphenyl]-2-carboxylic acid] the EC50 [1] was less than 10 nM.

CCCC(CCC)NC(=O)c1ccc(-c2c(Cl)cccc2-c2nc3ccccc3[nH]2)c(C(=O)O)c1 [Example 153, (S)-2′-(1H-1,3-benzodiazol-2-yl)-6′-chloro-4-[(heptan-4-yl)carbamoyl]-[1,1′-biphenyl]-2-carboxylic acid] was tested, and the EC50 [1] was 10 to 100 nM.

With CCOCC(NC(=O)c1ccc(-c2c(Cl)cccc2-c2nc3ccccc3[nH]2)c(C(=O)O)c1)c1ccccc1 [Example 157, (S)-2′-(1H-1,3-benzodiazol-2-yl)-6′-chloro-4-{[(1S)-2-ethoxy-1-phenylethyl]carbamoyl}-[1,1′-biphenyl]-2-carboxylic acid] the EC50 [2] was less than 10 nM and the EC50 [1] was less than 10 nM.

For CCCC(NC(=O)c1ccc(-c2c(Cl)cccc2-c2nc3ccccc3[nH]2)c(C(=O)O)c1)c1cccc(Cl)c1 [Example 167, (S)-2′-(1H-1,3-benzodiazol-2-yl)-6′-chloro-4-{[1-(3-chlorophenyl)butyl]carbamoyl}-[1,1′-biphenyl]-2-carboxylic acid], the EC50 [2] was less than 10 nM and the EC50 [3] was less than 10 nM.

CC[C@H](NC(=O)c1ccc(-c2c(Cl)cccc2-c2nc3ccccc3[nH]2)c(C(=O)O)c1)c1ccc(Cl)cc1OC [Example 170, (S)-2′-(1H-1,3-benzodiazol-2-yl)-6′-chloro-4-{[1-(4-chloro-2-methoxyphenyl)propyl]carbamoyl}-[1,1′-biphenyl]-2-carboxylic acid] was tested, and the EC50 [2] was less than 10 nM and the EC50 [3] was less than 10 nM.

For CCC[C@H](NC(=O)c1ccc(-c2c(Cl)cccc2-c2nc3ccccc3[nH]2)c(C(=O)O)c1)c1ccccc1F [Example 174, (S)-2′-(1H-1,3-benzodiazol-2-yl)-6′-chloro-4-{[1-(2-fluorophenyl)butyl]carbamoyl}-[1,1-biphenyl]-2-carboxylic acid], the EC50 [2] was less than 10 nM and the EC50 [3] was less than 10 nM.

With CCCC(NC(=O)c1ccc(-c2c(Cl)cccc2-c2nc3ccccc3[nH]2)c(C(=O)O)c1)c1ccc(Cl)cc1OC [Example 179, (S)-2′-(1H-1,3-benzodiazol-2-yl)-6′-chloro-4-{[1-(4-chloro-2-methoxyphenyl)butyl]carbamoyl}-[1,1′-biphenyl]-2-carboxylic acid] the EC50 [2] was less than 10 nM and the EC50 [3] was less than 10 nM.

Molecule CCCC(NC(=O)c1ccc(-c2c(Cl)cccc2-c2nc3ccccc3[nH]2)c(C(=O)O)c1)c1ccccn1 [Example 180, (S)-2′-(1H-1,3-benzodiazol-2-yl)-6′-chloro-4-{[1-(pyridin-2-yl)butyl]carbamoyl}-[1,1′-biphenyl]-2-carboxylic acid] has an EC50 [2] of less than 10 nM and an EC50 [3] of less than 10 nM.

Molecule CCC[C@H](NC(=O)c1ccc(-c2c(Cl)cccc2-c2nc3ccccc3[nH]2)c(C(=O)O)c1)c1ccc(Cl)cc1C(F)(F)F [Example 181, (S)-2′-(1H-1,3-benzodiazol-2-yl)-6′-chloro-4-({1-[4-chloro-2-(trifluoromethyl)phenyl]butyl}carbamoyl)-[1,1′-biphenyl]-2-carboxylic acid] has an EC50 [2] of less than 10 nM and an EC50 [3] of less than 10 nM.

CCC[C@H](NC(=O)c1ccc(-c2c(Cl)cccc2-c2nc3ccccc3[nH]2)c(C(=O)O)c1)c1ccc(Cl)cc1 [Example 187, (S)-2′-(1H-1,3-benzodiazol-2-yl)-6′-chloro-4-{[1-(4-chlorophenyl)butyl]carbamoyl}-[1,1′-biphenyl]-2-carboxylic acid] gave an EC50 [2] of less than 10 nM and an EC50 [3] of less than 10 nM.

Work on CCC[C@H](NC(=O)c1ccc(-c2c(Cl)cccc2-c2nc3ccccc3[nH]2)c(C(=O)O)c1)c1cccnc1 [Example 190, (S)-2′-(1H-1,3-benzodiazol-2-yl)-6′-chloro-4-{[1-(pyridin-3-yl)butyl]carbamoyl}[1,1′-biphenyl]-2-carboxylic acid] yielded an EC50 [2] of 10 to 100 nM and an EC50 [3] of 10 to 100 nM.

With CCC[C@H](NC(=O)c1ccc(-c2c(Cl)cccc2-c2nc3ccccc3[nH]2)c(C(=O)O)c1)c1cccnc1 [Example 193, (S)-2′-(1H-1,3-benzodiazol-2-yl)-6′-chloro-4-{[1-(pyridin-3-yl)butyl]carbamoyl}-[1,1′-biphenyl]-2-carboxylic acid] the EC50 [2] was 10 to 100 nM.

CCCC(NC(=O)c1ccc(-c2c(Cl)cccc2-c2nc3ccccc3[nH]2)c(C(=O)O)c1)c1cncs1 [Example 194, (S)-2′-(1H-1,3-benzodiazol-2-yl)-6′-chloro-4-{[1-(1,3-thiazol-5-yl)butyl]carbamoyl}-[1,1′-biphenyl]-2-carboxylic acid] showed an EC50 [2] of 10 to 100 nM and an EC50 [3] of 10 to 100 nM.

In the case of CCC[C@H](NC(=O)c1ccc(-c2c(Cl)cccc2-c2nc3cc(Cl)c(F)cc3[nH]2)c(C(=O)O)c1)C1CCCCCC1 [Example 202, (S)-2′-chloro-6′-(5-chloro-6-fluoro-1H-1,3-benzodiazol-2-yl)-4-[(1-cycloheptylbutyl)carbamoyl]-[1,1′-biphenyl]-2-carboxylic acid], the EC50 [2] is reported as less than 10 nM and the EC50 [3] is reported as less than 10 nM.

CCCC(NC(=O)c1ccc(-c2cc(Cl)ccc2-c2nc3cc(C(C)(C)C)ccc3[nH]2)c(C(=O)OC)c1)c1ccccc1OC (stereo not shown) [Example 203, methyl 2′-(5-tert-butyl-1H-1,3-benzodiazol-2-yl)-5′-chloro-4-{[1-(2-methoxyphenyl)butyl]carbamoyl}-[1,1′-biphenyl]-2-carboxylate] was tested, and the EC50 [2] was 10 to 100 nM and the EC50 [3] was 10 to 100 nM.
